The subject of one assay is E. coli in raw milk. The assay is described as follows: GelGreen raw milk treatment staining protocol, flow cytometry. In kind it is cell-based, Escherichia coli. To be noted: raw milk diluted in Tris-buffered saline pH 8.5, approximately 50 to 60° C. The procedure:
To show how the FL1, FL2 signals look like in un-spiked raw milk, low bacterial count raw milk was analyzed. The locally obtained raw milk (generally from a farm) has a very low bacteria count ranging from 1000 to 50,000 CFU per mL. The staining composition comprising GelGreen™ as the nucleic acid dye was prepared in the same way as in Example 1, except that the protease Savinase® 16L (from Novozymes) was added in an amount of 1.92×10^3 NPU/ml, where NPU is “Novo Protease Unit which is the same as Anson unit (AU). […] The sample with the staining composition was incubated at approximately 50° C. for approximately 4 to 5 min; the sample was again sonicated for approximately 5 seconds and finally the sample was analyzed on the flow cytometer and the fluorescent signals from the bacteria were detected and a count per unit volume was determined.
A small volume of raw milk was processed and analyzed following this GelGreen™ raw milk treatment staining method protocol (FIG. 38). To show the FL1 and FL2 signals for spiked raw milk, a known number of E. coli were placed into a known volume of the same raw milk and kept at 4° C. until treated, stained and analyzed on the flow cytometer. The raw milk with E. coli was processed and analyzed using the same GelGreen™ raw milk treatment staining method protocol. […]
Background: In flow cytometry, cells or beads pass a laser one at a time.

For another assay, the system named is E. coli. As to the kind of experiment: Staining E. coli in spiked raw milk and saline at different temperatures, flow cytometry. The class given is cell-based, Escherichia coli. To be noted: around 60° C. versus lower temperatures (40, 35, 25, 23° C.), 1 minute, pH 10.6. The procedure:
Both solutions were spiked with E. coli bacteria by adding 200 μl bacterial culture to 45 ml solution. The staining composition was prepared with the same dilution of GelGreen™ (from Biotium) as described in Example 1, but this time into a Tris-saline solution (200 mM Trizma base, 150 mM NaCl, pH 10.6) further comprising 0.12 AU/ml liquid Alcalase® 2.4 L FG (from Novozymes). Incubations were as described in the previous examples, except that spiked raw milk samples were incubated at 60, 40 and 23° C. and spiked saline samples were incubated at 60, 35 and 25° C. for 1 minute. […] Each panel contains four quarters: Q1, Q2, Q3 and Q4. The counts provided in Q4 represent the number of cells given in each of these four quarters. […] The optimal range as disclosed herein is 40 to 70° C., a further preferred range is 60 to 68° C. and a highly preferred temperature point is 62° C.

For assay [1], the system named is bacteria in raw milk. The assay is described as follows: IBC in 24 h old raw bulk milk, staining composition with Savinase, flow cytometer. The following applies: 68° C., 1 minute. In kind it is cell-based. The protocol:
To verify this method with Savinase®, locally obtained raw bulk tank milk from a dairy plant was collected. […] An amount of 200 μl bacterial culture is added to a 45 ml volume of 24 h old raw bulk milk and kept at 4° C. until analyzed. The staining composition comprising GelGreenTM as the nucleic acid dye was prepared in the same way as in Example 5, except that the Alcalase® protease was replaced by 0.12 KNPU/ml Savinase® […] protease (from Novozymes). 200 μl of unheated raw milk is diluted with the 1800 μl staining composition and incubated at approximately 68° C. for 1 minute; the sample is sonicated for 5 seconds at 40 kHz in the before and after the incubation step and analyzed on the flow cytometer; the fluorescent signals from the bacteria were detected and a count per unit volume was determined. Traditional plate counts were used to obtain a bacterial reference count. As used herein, the term “traditional plate counts”, refers to Petrifilm Aerobic Count Plates (AOAC Official Method 986.33). The LOG of individual bacterial count (IBC)/ml from 24 h raw milk in the flow cytometer is 5.61, the LOG of CFU/ml petrifilm is 4.83. The LOG of IBC from 24 h raw milk spiked with E. coli LOG in the flow cytometer is 6.48. The LOG of CFU/ml petrifilm is 6.69.

The test system of assay [2] is bacteria in raw milk. As to the kind of experiment: IBC in raw milk samples at different temperature settings, flow cytometer. In kind it is cell-based. The procedure:
The nucleic acid dyes, Evagreen®, SYTOX® Green and Propidium iodide where tested against GelGreen™ (the reference method). […] Nucleic acid dyes Evagreen®, SYTOX® Green and propidium iodide were tested using the same staining and incubation conditions as for the reference method only differing in the type of dye comprised in the staining composition. Evagreen® was used at a concentration of 1.25 μM in the staining composition. SYTOX® Green and Propidium iodide were used at a concentration of 5 μM in the staining composition. Three different types of milk were used: Locally obtained raw bulk tank milk from a farm and dairy plant where collected at a local farmer. This milk is referred to as fresh raw milk and is not older than 24 hours. 24 hour and 48 hour old milk were obtained from a dairy plant. […] For this purpose E. coli was grown overnight (approx. 15 h) in TSB at 32° C. The dead bacterial where obtained by heating the grown E. coli at 110° C. for 10 minutes. […] All the milk samples are kept at 4° C. until analyzed. […] Finally, the samples were analyzed on the flow cytometer and the fluorescent signals from the bacteria were detected and a count per unit volume was determined. […]
From example 5 it is already clear that temperatures lower than the optimal settings result in decreased DNA staining and so bacteria counting performance. […] Milk samples were kept at 4° C. until analyzed. […]

Assay [3] deals with bacteria in raw milk. The assay is described as follows: IBC in raw milk samples at different pH settings, flow cytometer. In kind it is cell-based.

Entries after “also recorded” stand apart in the source; their conditions may differ.

Data on 1 molecule can be found in patent US11415493B2, “Detection of cells in a liquid sample” (DELTA INSTRUMENTS B.V., priority 2016, dated 2022).

As to `CN(C)c1ccc2cc3ccc(N(C)C)cc3[n+](CCCCCC(=O)NCCCOCCOCCOCCCNC(=O)CCCCC[n+]3c4cc(N(C)C)ccc4cc4ccc(N(C)C)cc43)c2c1.[I-].[I-]` [GelGreen™], the “staining of bacterial cells in raw milk” value in the assay with E. coli in raw milk is “clear population of E. coli was identified; also recorded: bacterial cells being stained”. For the same molecule, in the assay with E. coli, the bacterial cells counted entry was “more bacterial cells could be counted”. The “LOG of IBC in the flow cytometer” value in the assay on bacteria in raw milk [1] (24 h raw milk spiked with E. coli) stood at 6.48. The “LOG of individual bacterial count (IBC)/ml in the flow cytometer” value in the assay on bacteria in raw milk [1] (24 h raw milk) was 5.61. Also, the “IBC compared to the 68° C. based reference method” value in the assay on bacteria in raw milk [2] (40° C., fresh spiked milk) is recorded as “way too low”; with bacteria in raw milk [2] (90° C., all the samples), “slightly higher”. Also, the “IBC higher compared to the reference method (pH 10.6)” value in the assay with bacteria in raw milk [3] (pH 7.0, fresh milk) is on record as “more than 1.5 million counts per ml”. In addition, in the assay with bacteria in raw milk [3] (pH 8.7), the “IBC compared to the reference method (pH 10.6)” value is reported as “comparable with the reference method”.
